Among the data in patent US9273028B2, “Heterocyclic tyrosine kinase inhibitors” (Biogen MA Inc., priority 2010, dated 2016) are IC50 values, retold here.

The assay deals with T1, BTK (Homo sapiens, UniProt Q06187).
T1 construct: purchased Upstate 14-552
Description: In vitro BTK kinase assay (BTK-POLYGAT-LS). The class given is biochemical. Conditions: IC50 (10 uM ATP). As to the method: In vitro BTK Kinase Assay
The purpose of the BTK in vitro assay is to determine compound potency against BTK through the measurement of IC50. […] For a typical assay, a 24 μL aliquot of a ATP/peptide master mix (final concentration; ATP 10 μM, polyGAT 100 nM) in kinase buffer (10 mM Tris-HCl pH 7.5, 10 mM MgCl2, 200 μM Na3PO4, 5 mM DTT, 0.01% Triton X-100, and 0.2 mg/ml casein) is added to each well. […] The assay is incubated for 30 minutes before being stopped with 28 μL of a 50 mM EDTA solution. […] The plate is covered and incubated for 45 minutes at room temperature.

T1 sequence (Q06187 whole entry): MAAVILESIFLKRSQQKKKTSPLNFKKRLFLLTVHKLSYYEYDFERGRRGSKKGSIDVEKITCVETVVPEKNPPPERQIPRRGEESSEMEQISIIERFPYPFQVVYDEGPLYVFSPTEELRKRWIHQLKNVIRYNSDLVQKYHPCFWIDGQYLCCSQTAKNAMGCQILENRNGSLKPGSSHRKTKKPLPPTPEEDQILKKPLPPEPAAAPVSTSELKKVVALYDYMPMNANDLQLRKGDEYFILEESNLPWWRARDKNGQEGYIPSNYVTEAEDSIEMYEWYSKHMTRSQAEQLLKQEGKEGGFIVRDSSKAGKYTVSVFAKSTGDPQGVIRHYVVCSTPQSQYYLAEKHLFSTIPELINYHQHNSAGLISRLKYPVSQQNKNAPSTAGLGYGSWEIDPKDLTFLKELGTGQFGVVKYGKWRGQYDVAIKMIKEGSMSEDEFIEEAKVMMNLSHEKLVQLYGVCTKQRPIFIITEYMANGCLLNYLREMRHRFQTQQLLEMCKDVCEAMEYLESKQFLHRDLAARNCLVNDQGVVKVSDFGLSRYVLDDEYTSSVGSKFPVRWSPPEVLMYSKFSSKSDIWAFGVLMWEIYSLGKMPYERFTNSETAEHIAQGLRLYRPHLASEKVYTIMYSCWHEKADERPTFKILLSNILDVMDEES

With `CN1CCN(C(=O)c2ccc(-c3cnc4[nH]ccc4c3N[C@H]3CCCN(C(=O)CNc4cc(Cl)cc(Cl)c4)C3)cc2)CC1` [Compound 1], the IC50 was < 100 nM.

Turning to `O=C(CNc1cc(Cl)cc(Cl)c1)N1CCC[C@@H](Nc2c(-c3ccc(C(=O)N4CCC(O)CC4)cc3)cnc3[nH]ccc23)C1` [Compound 2], the IC50 is < 100 nM.

Consider `O=C(CNc1cc(Cl)cc(Cl)c1)N1CCC[C@@H](Nc2c(-c3ccc(C(=O)N4CCOCC4)cc3)cnc3[nH]ccc23)C1` [Compound 3], for which the IC50 was < 100 nM.

Consider `CCC1C(Nc2ncnc3[nH]ncc23)CCCN1C(=O)CNc1cc(F)cc(Cl)c1` (stereo not drawn) [Compound 4], for which the IC50 was < 100 nM.

With `CCC1C(Nc2ncnc(N)c2F)CCCN1C(=O)CNc1cc(F)cc(Cl)c1` (stereo not drawn) [Compound 5], the IC50 lay within 1000 to 10000 nM.

On to `O=C(CNc1cc(Cl)cc(Cl)c1)N1CCC[C@@H](Nc2ncnc3[nH]cc(F)c23)C1` [Compound 6], for which the IC50 was in the range of 100 to 999 nM.

As to `CCC1C(Nc2ncnc3[nH]ccc23)CCCN1C(=O)CNc1cc(F)cc(Cl)c1` (stereo not drawn) [Compound 7], the IC50 was 100 to 999 nM.

In turn, `Nc1ncnc(N[C@@H]2CCCN(C(=O)CNc3cc(Cl)cc(Cl)c3)C2)c1Cl` [Compound 8] yielded an IC50 of 1000 to 10000 nM.

For `CN(c1ncnc2[nH]ccc12)C1CCCN(C(=O)CNc2cc(F)cc(Cl)c2)C1C(F)(F)F` (stereo not drawn) [Compound 9], the IC50 is < 100 nM.

The compound `O=C(CNc1cc(Cl)cc(Cl)c1)N1CCC[C@@H](Nc2ncnc3[nH]cnc23)C1` [Compound 10] displayed an IC50 of 1000 to 10000 nM.

`O=C(CNc1cc(Cl)cc(Cl)c1)N1CCC[C@H](Nc2ncnc3[nH]ccc23)[C@@H]1C(F)(F)F` [Compound 11] came in with an IC50 of 100 to 999 nM.

On to `O=C(CNc1cc(Cl)cc(Cl)c1)N1CCC[C@@H](Nc2ncnc3[nH]ccc23)[C@H]1C(F)(F)F` [Compound 12], for which the IC50 was < 100 nM.

For the compound `CN(c1ncnc2[nH]ccc12)C1CCCN(C(=O)CNc2cc(Cl)cc(C(F)(F)F)c2)C1C(F)(F)F` (stereo not drawn) [Compound 13], the IC50 was < 100 nM.

With `CN(c1ncnc2[nH]ccc12)C1CCCN(C(=O)CNc2cc(Cl)cc(Cl)c2)C1C(F)(F)F` (stereo not drawn) [Compound 14], the IC50 is < 100 nM.

In the case of `CN(c1ncnc2[nH]ccc12)C1CCCN(C(=O)CNc2ccccc2)C1C(F)(F)F` (stereo not drawn) [Compound 15], the IC50 is < 100 nM.

Take `CN(c1ncnc2[nH]ccc12)C1CCCN(C(=O)CNc2cccc(Cl)c2)C1C(F)(F)F` (stereo not drawn) [Compound 16]: the IC50 is < 100 nM.

In the case of `O=C(CNc1cc(Cl)cc(C(F)(F)F)c1)N1CCCC(Nc2ncnc3[nH]ccc23)C1C(F)(F)F` (stereo not drawn) [Compound 17], the concentration for half-maximal inhibition (IC50) was < 100 nM.

As to `O=C(CNc1ccccc1)N1CCCC(Nc2ncnc3[nH]ccc23)C1C(F)(F)F` (stereo not drawn) [Compound 18], the concentration for half-maximal inhibition (IC50) was 100 to 999 nM.

Turning to `O=C(CNc1cc(Cl)cc(Cl)c1)N1CCCC(Nc2ncnc3[nH]ccc23)C1C(F)(F)F` (stereo not drawn) [Compound 19], the IC50 is < 100 nM.

Consider `O=C(CNc1cccc(Cl)c1)N1CCCC(Nc2ncnc3[nH]ccc23)C1C(F)(F)F` (stereo not drawn) [Compound 20], for which the half-inhibitory concentration (IC50) was < 100 nM.

As for `C[C@H]1[C@@H](Nc2ncnc3[nH]ncc23)CCCN1C(=O)CNc1ccccc1S(=O)(=O)N1CCCCC1` [Compound 21], the half-inhibitory concentration (IC50) was 1000 to 10000 nM.

As for `C[C@@H]1[C@H](Nc2ncnc3[nH]ncc23)CCCN1C(=O)CNc1ccccc1S(=O)(=O)N1CCCCC1` [Compound 22], the IC50 is < 100 nM.

In turn, `C[C@@H]1[C@@H](Nc2ncnc3[nH]ncc23)CCCN1C(=O)CNc1cc(F)cc(Cl)c1` [Compound 24] gave an IC50 of 1000 to 10000 nM.

In turn, `C[C@H]1[C@H](Nc2ncnc3[nH]ncc23)CCCN1C(=O)CNc1cc(F)cc(Cl)c1` [Compound 26] had an IC50 of 100 to 999 nM.

Consider `C[C@H]1[C@@H](Nc2ncnc3[nH]ncc23)CCCN1C(=O)CNc1cc(F)cc(Cl)c1` [Compound 27], for which the IC50 is 100 to 999 nM.

The compound `C[C@@H]1[C@@H](Nc2ncnc3[nH]ncc23)CCCN1C(=O)CNc1cc(Cl)cc(Cl)c1` [Compound 28] gave a half-inhibitory concentration (IC50) of 100 to 999 nM.

Turning to `C[C@H]1[C@H](Nc2ncnc3[nH]ncc23)CCCN1C(=O)CNc1cc(Cl)cc(Cl)c1` [Compound 30], the IC50 lay in the range of 100 to 999 nM.

Take `C[C@H]1[C@@H](Nc2ncnc3[nH]ncc23)CCCN1C(=O)CNc1cc(Cl)cc(Cl)c1` [Compound 31]: the IC50 was < 100 nM.

As for `O=C(CNc1cc(Cl)cc(Cl)c1)N1CCCC(Nc2ncnc3[nH]ccc23)C1C1CCCC1` (stereo not drawn) [Compound 33], the IC50 is < 100 nM.

Regarding `CC(C)C1C(Nc2ncnc3[nH]ccc23)CCCN1C(=O)CNc1cc(Cl)cc(Cl)c1` (stereo not drawn) [Compound 34], the IC50 is < 100 nM.

Take `O=C(CNc1cc(Cl)cc(Cl)c1)N1CCC[C@@H](N(CCO)c2ncnc3[nH]ccc23)C1` [Compound 35]: the IC50 is < 100 nM.

With `O=C(O)CN(c1ncnc2[nH]ccc12)[C@@H]1CCCN(C(=O)CNc2cc(Cl)cc(Cl)c2)C1` [Compound 36], the half-inhibitory concentration (IC50) was 1000 to 10000 nM.

Compound `CN(C)C(=O)CN(c1ncnc2[nH]ccc12)[C@@H]1CCCN(C(=O)CNc2cc(Cl)cc(Cl)c2)C1` [Compound 40] displayed an IC50 of 100 to 999 nM.

Compound `CCCCC1C(Nc2ncnc3[nH]ccc23)CCCN1C(=O)CNc1cc(Cl)cc(Cl)c1` (stereo not drawn) [Compound 41] had a half-inhibitory concentration (IC50) of 100 to 999 nM.

Consider `CCC1CC2CCN(C(=O)CNc3cc(Cl)cc(Cl)c3)CC2N1c1ncnc2[nH]ccc12` (stereo not drawn) [Compound 42], for which the 50% inhibitory concentration (IC50) was < 100 nM.

In the case of `O=C(CNc1cc(Cl)cc(Cl)c1)N1CCCC(N(CCO)c2ncnc3[nH]ccc23)C1` (stereo not drawn) [Compound 43], the IC50 is < 100 nM.

For the compound `C[C@@H]1C[C@@H]2CCN(C(=O)CNc3cc(Cl)cc(Cl)c3)C[C@@H]2N1c1ncnc2[nH]ccc12` [Compound 46], the IC50 is < 100 nM.

As for `C[C@@H]1C[C@H]2CCN(C(=O)CNc3cc(Cl)cc(Cl)c3)C[C@H]2N1c1ncnc2[nH]ccc12` [Compound 47], the IC50 was < 100 nM.

For `CC1C(N(C)c2ncnc(N)c2F)CCCN1C(=O)CNc1cc(Cl)cc(Cl)c1` (stereo not drawn) [Compound 49], the IC50 was < 100 nM.

In the case of `O=C(CNc1cc(Cl)cc(Cl)c1)N1CCOCC(Nc2ncnc3[nH]cnc23)C1` (stereo not drawn) [Compound 50], the IC50 was in the range of 100 to 999 nM.

With `CC1C(Nc2ncnc3[nH]ccc23)CCCN1C(=O)[C@H](Nc1cc(Cl)cc(Cl)c1)C1CC1` (stereo partly drawn) [Compound 51], the IC50 is 100 to 999 nM.

Regarding `CC1C(Nc2ncnc3[nH]ncc23)CCCN1C(=O)[C@H](Nc1cc(Cl)cc(Cl)c1)C1CC1` (stereo partly drawn) [Compound 52], the IC50 was < 100 nM.

`O=C1C(Nc2cc(F)cc(Cl)c2)CC2CCC(Nc3ncnc4[nH]ccc34)CN12` (stereo not drawn) [Compound 53]: the IC50 was in the range of 1000 to 10000 nM.

For `O=C(CNc1cc(Cl)cc(Cl)c1)N1CCCC(N(CCN2CCCC2)c2ncnc3[nH]ccc23)C1` (stereo not drawn) [Compound 54], the IC50 was 1000 to 10000 nM.

With `CC1C(N(C)c2ncnc3[nH]ncc23)CCCN1C(=O)CNc1cc(Cl)cc(Cl)c1` (stereo not drawn) [Compound 55], the IC50 was < 100 nM.

For the compound `C[C@@H](Nc1cc(Cl)cc(Cl)c1)C(=O)N1CCC2CCN(c3ncnc4[nH]ccc34)C2C1` (stereo partly drawn) [Compound 56], the IC50 was < 100 nM.

Turning to `CC1C2C(CCN1C(=O)CNc1cc(Cl)cc(Cl)c1)CCN2c1ncnc2[nH]ccc12` (stereo not drawn) [Compound 57], the half-inhibitory concentration (IC50) was < 100 nM.

For the compound `CC1C(Nc2ncnc3[nH]ncc23)CCCN1C(=O)CNc1cc(Cl)cc(C(F)(F)F)c1` (stereo not drawn) [Compound 58], the half-inhibitory concentration (IC50) is < 100 nM.

Turning to `CC1C(Nc2ncnc3[nH]ncc23)CCCN1C(=O)[C@@H](C)Nc1cc(Cl)cc(Cl)c1` (stereo partly drawn) [Compound 60], the IC50 is < 100 nM.

Regarding `CCC[C@@H](Nc1cc(Cl)cc(Cl)c1)C(=O)N1CCCC(Nc2ncnc3[nH]ncc23)C1C` (stereo partly drawn) [Compound 61], the IC50 was < 100 nM.

Regarding `CC1C(Nc2ncnc(N)c2F)CCCN1C(=O)CNc1cc(Cl)cc(Cl)c1` (stereo not drawn) [Compound 62], the IC50 was < 100 nM.

Regarding `CC1C(Nc2ncnc3[nH]ncc23)CCCN1C(=O)CNc1ccccc1S(=O)(=O)c1ccccc1` (stereo not drawn) [Compound 63], the IC50 is < 100 nM.

As for `CCC[C@@H](Nc1cc(Cl)cc(Cl)c1)C(=O)N1CCCC(Nc2ncnc3[nH]ccc23)C1C` (stereo partly drawn) [Compound 64], the IC50 is < 100 nM.

Take `CC[C@@H](Nc1cc(Cl)cc(Cl)c1)C(=O)N1CCCC(Nc2ncnc3[nH]ncc23)C1C` (stereo partly drawn) [Compound 65]: the IC50 was < 100 nM.

As to `CC1C(Nc2ncnc3[nH]ccc23)CCCN1C(=O)CNc1ccccc1S(=O)(=O)N1CCCCC1` (stereo not drawn) [Compound 66], the IC50 is < 100 nM.

Take `CC1C(Nc2ncnc3[nH]ncc23)CCCN1C(=O)CNc1cc(F)cc(Cl)c1` (stereo not drawn) [Compound 68]: the IC50 was < 100 nM.

As to `CC1C(Nc2ncnc3[nH]ncc23)CCCN1C(=O)CNc1ccccc1S(=O)(=O)C1CCCC1` (stereo not drawn) [Compound 69], the IC50 is < 100 nM.

For `CC1C(Nc2ncnc3[nH]ncc23)CCCN1C(=O)CNc1ccccc1S(=O)(=O)N1CCCC1` (stereo not drawn) [Compound 70], the IC50 is < 100 nM.

Consider `CC1C(Nc2ncnc3[nH]ccc23)CCCN1C(=O)CNc1cc(F)cc(Cl)c1` (stereo not drawn) [Compound 71], for which the half-inhibitory concentration (IC50) was < 100 nM.

In the case of `CC[C@@H](Nc1cc(Cl)cc(Cl)c1)C(=O)N1CCCC(Nc2ncnc3[nH]ccc23)C1C` (stereo partly drawn) [Compound 72], the IC50 was < 100 nM.

For the compound `CC1C(Nc2ncnc3[nH]ccc23)CCCN1C(=O)CNc1ccccc1S(=O)(=O)C1CCCC1` (stereo not drawn) [Compound 73], the IC50 is < 100 nM.

For `CC1CC2CCN(C(=O)CNc3cc(Cl)cc(Cl)c3)CC2N1c1ncnc2[nH]ccc12` (stereo not drawn) [Compound 74], the IC50 was < 100 nM.

On to `CC1C(Nc2ncnc3[nH]ccc23)CCCN1C(=O)CNc1ccccc1S(=O)(=O)c1ccccc1` (stereo not drawn) [Compound 75], for which the IC50 is < 100 nM.

With `O=C(CNc1ccc(F)c(Cl)c1)N1CCC2CCN(c3ncnc4[nH]ccc34)C2C1` (stereo not drawn) [Compound 77], the IC50 is < 100 nM.

Take `CC1C(Nc2ncnc3[nH]ccc23)CCCN1C(=O)CNc1ccccc1S(=O)(=O)N1CCCC1` (stereo not drawn) [Compound 79]: the IC50 was < 100 nM.

With `CC1C(Nc2ncnc3[nH]ccc23)CCCN1C(=O)CNc1cc(Cl)cc(C(F)(F)F)c1` (stereo not drawn) [Compound 80], the IC50 was < 100 nM.

One may read the IC50 as the concentration that gives 50% inhibition.
